Each block holds one compound with its values, some of them ahead of it.
Legend:
[1] = target: Tyrosine-protein kinase SYK (Homo sapiens, UniProt P43405); experiment: Selectivity interaction (KinomeScan (DiscoverX)) EUB0000655a SYK; conditions: at 10 µM
[2] = target: T1, TGF-beta receptor type-1 (Homo sapiens) (UniProt P36897); experiment: Selectivity interaction (KinomeScan (DiscoverX)) EUB0000655a TGFBR1; conditions: at 10 µM
T1 sequence (whole entry): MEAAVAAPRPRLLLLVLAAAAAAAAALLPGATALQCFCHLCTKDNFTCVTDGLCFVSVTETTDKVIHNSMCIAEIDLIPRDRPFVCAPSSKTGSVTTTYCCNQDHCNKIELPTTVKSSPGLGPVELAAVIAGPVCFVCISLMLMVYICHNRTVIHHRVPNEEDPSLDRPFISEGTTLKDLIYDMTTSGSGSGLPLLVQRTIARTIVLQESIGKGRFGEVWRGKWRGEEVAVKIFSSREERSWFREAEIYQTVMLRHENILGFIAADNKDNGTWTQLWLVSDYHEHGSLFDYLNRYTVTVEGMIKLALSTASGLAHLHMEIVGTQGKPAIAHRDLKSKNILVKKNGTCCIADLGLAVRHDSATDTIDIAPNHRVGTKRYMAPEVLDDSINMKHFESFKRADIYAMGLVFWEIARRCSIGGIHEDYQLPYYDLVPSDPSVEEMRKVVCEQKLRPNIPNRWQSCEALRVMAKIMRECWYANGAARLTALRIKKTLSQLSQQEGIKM

[3] = target: Serine/threonine-protein kinase SIK3 (Homo sapiens) (UniProt Q9Y2K2); experiment: Selectivity interaction (KinomeScan (DiscoverX)) EUB0001079a SIK3; conditions: at 1 µM
[4] = target: T2, Cyclin-dependent kinase-like 2 (Homo sapiens) (UniProt Q92772); conditions: at 10 µM
T2 sequence (whole entry): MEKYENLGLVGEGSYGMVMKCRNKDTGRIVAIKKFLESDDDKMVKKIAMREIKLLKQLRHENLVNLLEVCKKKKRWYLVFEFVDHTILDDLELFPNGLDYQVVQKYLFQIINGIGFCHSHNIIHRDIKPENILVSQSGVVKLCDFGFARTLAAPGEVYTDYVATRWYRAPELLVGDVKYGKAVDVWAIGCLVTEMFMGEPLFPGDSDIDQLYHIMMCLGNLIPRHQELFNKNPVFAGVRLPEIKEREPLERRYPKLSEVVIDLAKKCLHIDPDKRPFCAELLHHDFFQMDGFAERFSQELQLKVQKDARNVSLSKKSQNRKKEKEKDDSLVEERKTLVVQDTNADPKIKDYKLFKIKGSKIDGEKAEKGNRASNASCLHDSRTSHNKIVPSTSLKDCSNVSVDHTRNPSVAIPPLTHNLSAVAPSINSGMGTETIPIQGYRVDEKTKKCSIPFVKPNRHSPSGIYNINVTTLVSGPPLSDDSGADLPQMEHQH

[5] = target: T3, Mitogen-activated protein kinase kinase kinase 2 (Homo sapiens) (UniProt Q9Y2U5); conditions: at 10 µM
T3 sequence (whole entry): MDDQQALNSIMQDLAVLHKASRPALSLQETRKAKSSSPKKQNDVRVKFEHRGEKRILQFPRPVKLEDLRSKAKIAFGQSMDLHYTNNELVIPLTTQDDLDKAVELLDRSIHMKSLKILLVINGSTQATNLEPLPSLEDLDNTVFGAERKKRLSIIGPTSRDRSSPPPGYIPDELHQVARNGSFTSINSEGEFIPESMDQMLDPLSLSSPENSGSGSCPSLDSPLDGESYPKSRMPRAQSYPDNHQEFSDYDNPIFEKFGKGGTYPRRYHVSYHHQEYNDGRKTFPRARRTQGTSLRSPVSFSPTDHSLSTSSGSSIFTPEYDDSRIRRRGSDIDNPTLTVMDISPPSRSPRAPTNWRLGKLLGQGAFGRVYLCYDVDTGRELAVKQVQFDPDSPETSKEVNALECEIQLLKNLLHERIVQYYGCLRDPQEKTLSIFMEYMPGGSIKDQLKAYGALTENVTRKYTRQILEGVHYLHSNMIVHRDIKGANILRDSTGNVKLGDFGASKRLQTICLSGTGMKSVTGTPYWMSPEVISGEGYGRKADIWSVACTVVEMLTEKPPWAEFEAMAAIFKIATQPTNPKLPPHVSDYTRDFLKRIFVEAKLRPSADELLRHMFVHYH

[6] = target: T3, Mitogen-activated protein kinase kinase kinase 2 (Homo sapiens); experiment: Selectivity interaction (ActivX KiNativ screen (kinase selectivity in THP-1 cell lysates)) EUB0000639a MAP3K2; format: subcellular; conditions: lysate, at 0.01 µM
Activated CDC42 kinase 1 = Activated CDC42 kinase 1 (Homo sapiens, UniProt Q07912); experiment: Selectivity interaction (ProQinase) EUB0000171b TNK2
[7] = target: NT-3 growth factor receptor (Homo sapiens, UniProt Q16288); experiment: Selectivity interaction (ProQinase) EUB0000171b NTRK3
[8] = target: cAMP-dependent protein kinase catalytic subunit alpha (Homo sapiens, UniProt P17612); experiment: Selectivity interaction (Kinase panel (33PanQinase(R) Activity Assay)) EUB0000877a PRKACA
[9] = target: T4, Serine/threonine-protein kinase DCLK3 (Homo sapiens) (UniProt Q9C098); experiment: Selectivity interaction (KinomeScan (DiscoverX)) EUB0000666a DCLK3; conditions: at 10 µM
T4 sequence (whole entry): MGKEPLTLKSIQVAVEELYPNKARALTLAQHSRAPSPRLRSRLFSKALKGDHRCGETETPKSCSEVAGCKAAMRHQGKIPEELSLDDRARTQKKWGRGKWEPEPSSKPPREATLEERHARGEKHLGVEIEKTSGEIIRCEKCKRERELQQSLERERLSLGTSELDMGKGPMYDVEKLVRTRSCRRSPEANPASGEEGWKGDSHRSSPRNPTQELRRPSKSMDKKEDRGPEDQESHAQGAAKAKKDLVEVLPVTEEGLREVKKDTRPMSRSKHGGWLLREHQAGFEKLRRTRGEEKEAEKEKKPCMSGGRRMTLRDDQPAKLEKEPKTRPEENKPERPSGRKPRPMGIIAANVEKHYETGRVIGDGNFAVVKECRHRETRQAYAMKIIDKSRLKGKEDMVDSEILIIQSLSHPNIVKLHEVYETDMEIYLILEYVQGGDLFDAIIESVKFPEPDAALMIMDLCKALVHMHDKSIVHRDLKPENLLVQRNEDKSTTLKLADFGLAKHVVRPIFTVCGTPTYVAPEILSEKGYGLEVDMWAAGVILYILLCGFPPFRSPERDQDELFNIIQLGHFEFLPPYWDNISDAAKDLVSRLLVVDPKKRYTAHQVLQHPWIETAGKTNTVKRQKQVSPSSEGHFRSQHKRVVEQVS

[10] = target: Platelet-derived growth factor receptor beta (Homo sapiens, UniProt P09619); experiment: Selectivity interaction (Kinase panel (Z-LYTE Assay)) EUB0001632a PDGFRB; conditions: at 10 µM
Chain of Platelet-derived growth factor receptor beta (P09619 whole entry): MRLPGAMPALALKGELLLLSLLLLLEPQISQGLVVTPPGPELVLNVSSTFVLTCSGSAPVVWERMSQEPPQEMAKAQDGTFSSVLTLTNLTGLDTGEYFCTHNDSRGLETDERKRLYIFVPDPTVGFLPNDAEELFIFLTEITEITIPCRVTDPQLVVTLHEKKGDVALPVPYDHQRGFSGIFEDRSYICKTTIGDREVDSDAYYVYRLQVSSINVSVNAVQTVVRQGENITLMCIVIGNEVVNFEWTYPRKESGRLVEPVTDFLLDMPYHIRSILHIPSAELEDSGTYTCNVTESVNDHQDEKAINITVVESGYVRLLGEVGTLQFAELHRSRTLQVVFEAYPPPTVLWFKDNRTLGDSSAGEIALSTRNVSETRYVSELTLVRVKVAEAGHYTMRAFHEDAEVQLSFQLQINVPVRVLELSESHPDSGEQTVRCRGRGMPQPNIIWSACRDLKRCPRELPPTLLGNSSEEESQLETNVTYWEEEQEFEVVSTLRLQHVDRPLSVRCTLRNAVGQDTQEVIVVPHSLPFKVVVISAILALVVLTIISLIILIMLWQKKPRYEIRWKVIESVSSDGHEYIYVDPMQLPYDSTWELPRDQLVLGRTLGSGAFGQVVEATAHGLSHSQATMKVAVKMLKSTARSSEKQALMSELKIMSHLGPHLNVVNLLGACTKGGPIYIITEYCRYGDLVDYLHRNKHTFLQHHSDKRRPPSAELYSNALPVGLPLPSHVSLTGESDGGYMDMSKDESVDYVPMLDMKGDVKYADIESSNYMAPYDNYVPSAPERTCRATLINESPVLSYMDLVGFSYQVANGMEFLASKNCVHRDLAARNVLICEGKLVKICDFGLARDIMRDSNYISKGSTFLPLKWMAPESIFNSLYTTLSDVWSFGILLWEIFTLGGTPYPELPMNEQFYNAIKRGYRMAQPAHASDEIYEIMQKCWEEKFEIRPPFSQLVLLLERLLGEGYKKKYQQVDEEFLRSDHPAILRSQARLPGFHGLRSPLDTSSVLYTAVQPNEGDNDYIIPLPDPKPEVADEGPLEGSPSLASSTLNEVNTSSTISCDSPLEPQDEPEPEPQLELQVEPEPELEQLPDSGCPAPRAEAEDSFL

Chain of NT-3 growth factor receptor (Q16288 32-839 limits assumed): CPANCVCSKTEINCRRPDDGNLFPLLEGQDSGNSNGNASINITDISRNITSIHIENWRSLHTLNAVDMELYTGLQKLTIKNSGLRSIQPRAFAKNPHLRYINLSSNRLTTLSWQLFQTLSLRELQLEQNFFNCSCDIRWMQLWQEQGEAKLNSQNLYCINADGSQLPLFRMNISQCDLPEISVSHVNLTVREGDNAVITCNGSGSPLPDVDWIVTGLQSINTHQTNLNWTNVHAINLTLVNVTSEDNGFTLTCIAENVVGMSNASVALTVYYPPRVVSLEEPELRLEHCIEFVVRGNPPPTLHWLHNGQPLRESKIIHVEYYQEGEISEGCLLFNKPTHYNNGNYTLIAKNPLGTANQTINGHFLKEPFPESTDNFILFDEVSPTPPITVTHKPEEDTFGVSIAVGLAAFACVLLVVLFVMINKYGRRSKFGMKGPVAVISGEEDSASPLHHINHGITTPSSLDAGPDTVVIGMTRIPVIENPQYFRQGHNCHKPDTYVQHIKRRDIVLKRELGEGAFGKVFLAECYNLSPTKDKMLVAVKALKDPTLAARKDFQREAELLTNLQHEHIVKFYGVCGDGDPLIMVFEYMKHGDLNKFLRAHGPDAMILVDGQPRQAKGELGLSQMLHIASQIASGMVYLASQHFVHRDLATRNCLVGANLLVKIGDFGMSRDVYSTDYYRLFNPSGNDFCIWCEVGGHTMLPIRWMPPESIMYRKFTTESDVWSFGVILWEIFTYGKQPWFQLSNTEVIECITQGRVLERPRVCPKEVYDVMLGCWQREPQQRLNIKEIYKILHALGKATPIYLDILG
Chain of Activated CDC42 kinase 1 (Q07912 whole entry, looked up): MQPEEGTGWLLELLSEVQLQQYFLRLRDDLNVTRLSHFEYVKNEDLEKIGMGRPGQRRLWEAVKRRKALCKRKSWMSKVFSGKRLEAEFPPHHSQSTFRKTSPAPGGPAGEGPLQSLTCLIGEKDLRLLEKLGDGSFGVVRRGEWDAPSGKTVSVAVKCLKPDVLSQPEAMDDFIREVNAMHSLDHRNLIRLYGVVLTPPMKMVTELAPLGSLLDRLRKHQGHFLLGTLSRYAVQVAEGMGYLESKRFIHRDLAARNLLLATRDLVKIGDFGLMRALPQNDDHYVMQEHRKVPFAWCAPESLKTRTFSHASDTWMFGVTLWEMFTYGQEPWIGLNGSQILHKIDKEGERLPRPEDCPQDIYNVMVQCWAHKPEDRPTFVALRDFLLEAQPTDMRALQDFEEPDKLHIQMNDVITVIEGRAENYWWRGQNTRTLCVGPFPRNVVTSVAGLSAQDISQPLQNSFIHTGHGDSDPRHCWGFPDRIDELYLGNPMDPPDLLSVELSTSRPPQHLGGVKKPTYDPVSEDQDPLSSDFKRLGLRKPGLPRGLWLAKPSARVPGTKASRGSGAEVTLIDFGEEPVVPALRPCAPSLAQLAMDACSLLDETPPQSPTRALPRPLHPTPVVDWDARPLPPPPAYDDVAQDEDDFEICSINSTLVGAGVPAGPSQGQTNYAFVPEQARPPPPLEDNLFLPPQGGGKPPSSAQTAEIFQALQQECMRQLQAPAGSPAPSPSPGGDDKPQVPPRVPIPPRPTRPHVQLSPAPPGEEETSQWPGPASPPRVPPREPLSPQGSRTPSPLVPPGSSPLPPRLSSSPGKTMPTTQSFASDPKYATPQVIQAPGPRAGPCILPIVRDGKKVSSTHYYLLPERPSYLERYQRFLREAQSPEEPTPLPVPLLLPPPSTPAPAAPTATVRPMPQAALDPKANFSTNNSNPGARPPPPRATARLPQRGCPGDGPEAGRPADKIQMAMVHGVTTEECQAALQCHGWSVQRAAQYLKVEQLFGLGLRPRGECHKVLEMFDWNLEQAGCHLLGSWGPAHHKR
Chain of Serine/threonine-protein kinase SIK3 (Homo sapiens) (Q9Y2K2 whole entry, looked up): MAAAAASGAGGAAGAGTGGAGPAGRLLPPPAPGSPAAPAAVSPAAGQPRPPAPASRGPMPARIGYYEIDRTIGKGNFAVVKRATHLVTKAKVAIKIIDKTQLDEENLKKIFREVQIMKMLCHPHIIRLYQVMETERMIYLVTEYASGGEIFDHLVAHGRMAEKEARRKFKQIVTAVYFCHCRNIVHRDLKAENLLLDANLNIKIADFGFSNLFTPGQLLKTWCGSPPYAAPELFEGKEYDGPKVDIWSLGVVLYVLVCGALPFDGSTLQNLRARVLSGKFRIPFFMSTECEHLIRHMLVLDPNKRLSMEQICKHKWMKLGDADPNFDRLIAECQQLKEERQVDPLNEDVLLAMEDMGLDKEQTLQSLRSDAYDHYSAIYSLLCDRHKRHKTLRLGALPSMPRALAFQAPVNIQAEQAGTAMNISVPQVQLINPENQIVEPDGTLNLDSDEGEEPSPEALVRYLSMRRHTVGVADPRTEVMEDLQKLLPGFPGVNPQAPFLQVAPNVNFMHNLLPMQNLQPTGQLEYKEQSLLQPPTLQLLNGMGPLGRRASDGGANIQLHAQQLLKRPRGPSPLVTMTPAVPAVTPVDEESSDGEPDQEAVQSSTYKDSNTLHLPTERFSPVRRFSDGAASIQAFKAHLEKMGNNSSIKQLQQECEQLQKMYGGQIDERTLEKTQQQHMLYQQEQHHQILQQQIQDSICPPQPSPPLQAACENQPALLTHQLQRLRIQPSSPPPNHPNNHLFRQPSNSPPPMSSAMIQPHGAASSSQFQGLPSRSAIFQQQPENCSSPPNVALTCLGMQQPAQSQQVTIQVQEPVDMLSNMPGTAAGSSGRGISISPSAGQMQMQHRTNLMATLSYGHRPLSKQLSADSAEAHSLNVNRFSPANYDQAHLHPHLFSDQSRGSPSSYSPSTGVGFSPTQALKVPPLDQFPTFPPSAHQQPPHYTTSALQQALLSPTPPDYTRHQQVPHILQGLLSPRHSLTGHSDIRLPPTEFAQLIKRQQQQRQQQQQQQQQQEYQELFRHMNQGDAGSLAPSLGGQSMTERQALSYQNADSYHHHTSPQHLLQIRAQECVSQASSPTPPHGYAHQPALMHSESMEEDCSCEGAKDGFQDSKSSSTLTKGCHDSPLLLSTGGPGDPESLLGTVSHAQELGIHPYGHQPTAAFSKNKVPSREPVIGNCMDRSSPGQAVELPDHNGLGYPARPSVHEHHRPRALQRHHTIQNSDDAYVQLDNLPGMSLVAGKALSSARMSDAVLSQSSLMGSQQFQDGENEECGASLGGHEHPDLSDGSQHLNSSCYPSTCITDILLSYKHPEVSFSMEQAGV

Structure (SMILES): CN(C)CCOc1ccc(-c2nc(-c3ccncc3)c(-c3ccc4c(c3)CC/C4=N\O)[nH]2)cc1
% of control [1]: 100%
% of control [2]: 17%

Structure (SMILES): Nc1cnc(N2CCc3cc(S(=O)(=O)Nc4c(F)cc(Cl)cc4F)cc(N4CCCC4=O)c32)nc1 [TP-020n]
% of control [3]: 83%

Structure (SMILES): Cc1cc([C@@H](C)Nc2ccccc2C(=O)O)c2nc(N3CCOCC3)cc(=O)n2c1 [AZD-6482]
% of control [4]: 91%
% of control [5]: 100%

% of inhibition [6]: 8.7%
Structure (SMILES): CC[C@@H]1[C@H](F)C(=O)N[C@@H]1COc1nccc2cc(C(N)=O)c(OC)cc12 [ZIMLOVISERTIB]

% of control (Activated CDC42 kinase 1; at 1 µM): 100%
% of control (Activated CDC42 kinase 1; at 5 µM): 95%
% of control ([7]; at 1 µM): 99%
% of control ([7]; at 5 µM): 79%
Structure (SMILES): C=CC(=O)Nc1cccc(C(=O)Nc2ccc(Nc3cc(-c4[nH]c(SC)nc4C)ccn3)cc2)c1

IC50 [8]: > 10 µM
Structure (SMILES): CCC(=O)N1CC[C@H](Nc2ncnc3c2CN(c2cnc(OC)c(C(F)(F)F)c2)CC3)C1 [LENIOLISIB]

Structure (SMILES): O=C(NOC[C@H](O)CO)c1ccc(F)c(F)c1Nc1ccc(I)cc1F
% of control [9]: 100%

% of control [10]: 12.7%
Structure (SMILES): Cn1cc(-n2cnc3c(NCc4nc5cc(Cl)c(Cl)cc5[nH]4)nc(N4CCOCC4)nc32)cn1
